Reference: patent US7303876B2 (Applera Corporation, priority 2000, dated 2007)
Where two headings read alike, the source gives them in different places. Each block holds one compound with its values, some of them ahead of it.

Columns and labels:
Liver tissue [1] = assay: Liver tissue disaggregation by 1% surfactant with or without Proteinase K at 60° C.; design: Tissue Disaggregation: scale not given here; settings: for Tissue Disaggregation: 60° C., 1% surfactant
Method: To evaluate the ability of various cationic surfactants to increase the digestion of tissue by Proteinase K, liver slices were digested using reaction compositions including one of the sixteen surfactants (shown in Table 4), both with and without Proteinase K. The reducing agent dithiothreitol (DTT) was included to evaluate the effect of reducing conditions on tissue digestion. […] One of the sixteen surfactants was added to one pair of tubes to yield a final concentration of 1% surfactant. The seventeenth pair of tubes served as non-surfactant controls. One milligram (mg) of Proteinase K was added to one tube of each of the seventeen pairs.
PK=presence or absence of Proteinase K in the reaction composition; Y=Proteinase K was present; N=Proteinase K was not present in the reaction composition.

[2] = Solubility of surfactants (0.5% Sarkosyl, LDS, SDS, CTAB; 5.0% others) in salt solutions
Method: In certain instances, the solubility of detergents in high salt may relate to on the composition of the salt and the detergent itself. A mixing experiment was performed to examine the solubility of a variety of anionic, cationic, and nonionic surfactants in different salt compositions. […] The salt solutions contained Lil, Nal, KI, Rbl, Csl , GuSCN, GuHCl, or NaClO4, at pH 6.0 or 10.0. […] The solubility of the surfactants was scored as either soluble or insoluble. The solubility of the surfactant in the salt solution was determined initially by visual observations for cloudiness or precipitate formation. The resulting solutions were also centrifuged to verify the absence of a precipitate by the absence of a precipitate pellet.

slices of liver = assay: Maceration of liver slices by reaction compositions at 65° C.
Method: Initially, a series of reaction compositions were analyzed for their ability to disaggregate a biological sample, e.g., slices of liver. These reaction compositions comprised 100 mM Tris, pH 8.0, 20 mM dithiothreitol (DTT), and optionally,1 mg/ml Proteinase K, surfactants (e.g., cationic, nonionic and anionic detergents), chaotropes, or the additive 1-methyl-2-pyrollidinone (Sigma). Each reaction compositions was placed in a tube with a slice of liver and then incubated at 65° C. The tubes were observed periodically to determine which reaction compositions were able to efficiently macerate the sample.

Liver tissue [3] = assay: Nucleic acid release from liver slices, pH 6, 45° C., 30 minutes, surfactants and additives; settings: with 1-methyl-2-pyrolidinone
Method: To compare CTACl to CTAB, those two surfactants were evaluated in parallel along with hexadecyltrimethylammonium bromide (HDTAB), hexadecyltrimethylammonium chloride (HDTACl), and Sarkosyl. Three additives, phenylglyoxal, acridine orange (e.g., Sigma #A6014), and 1-methyl-2-pyrolidinone, were also evaluated. Phenylglyoxal was tested to determine if it would reduce RNAse activity. […] 1-Methyl-2-pyrrolidinone was tested to see if it would enhance solubility of the sample by various reaction compositions.
Slices of liver-tissue (100-200 mg/sample) were placed into twenty-one Eppendorf tubes. Four hundred microliters of a reaction composition, comprising 100 mM MES, pH 6, 20 mM CaCl2, and 1 mg Proteinase K, was added to each tube.
The tubes were incubated at 45° C. for 30 minutes with mixing (Eppendorf Thermomixer, Model 5436). Surfactant: protease complexes were solubilized using methods the same as or similar to those described in Example 7. Remaining tissue fragments were removed by centrifugation using methods the same as or similar to those described in Example 7. The supernatant was phenol extracted, isopropanol precipitated, and ethanol washed using methods the same as or similar to those described in Example 6.

[4] = Fifteen Minutes Incubation, Proteinase K not present (N)
[5] = Fifteen Minutes Incubation, Proteinase K present (Y)
[6] = Fifty-Two Minutes Incubation, Proteinase K not present (N)
[7] = Fifty-Two Minutes Incubation, Proteinase K present (Y)
[8] = 1 mg/ml Proteinase K, 16-24 hr, 65° C., additive 0.1%
[9] = 1 mg/ml Proteinase K, 16-24 hr, 65° C., additive 1%
[10] = 1 mg/ml Proteinase K, 1 hr, 65° C., additive 0.1%
[11] = 1 mg/ml Proteinase K, 1 hr, 65° C., additive 1%
[12] = No Proteinase K, 16-24 hr, 65° C., additive 2%
[13] = No Proteinase K, 2-5 hr, 65° C., additive 2%
[14] = No Proteinase K, 72 hr, 65° C., additive 2%

Compound: O[C@H](CS)[C@H](O)CS (racemic) [DTT, dithiothreitol]
effect of reducing agent on tissue disaggregation (Liver tissue [1]; 20 mM dithiothreitol): did not seem to significantly effect tissue disaggregation

Compound: CCCCCCCCCCCC[N+](C)(C)Cc1ccccc1.[Br-] [Benzyldimethyldodecylammonium bromide]
Tissue Disaggregation (Liver tissue [1]; [4]): 0
Tissue Disaggregation (Liver tissue [1]; [5]): 0
Tissue Disaggregation (Liver tissue [1]; [6]): 0
Tissue Disaggregation (Liver tissue [1]; [7]): 1

Compound: CCCCCCCCCCCCCCCC[N+](C)(C)Cc1ccccc1.[Br-] [Benzyldimethylhexadecylammonium bromide]
Tissue Disaggregation (Liver tissue [1]; [4]): 0
Tissue Disaggregation (Liver tissue [1]; [5]): 0
Tissue Disaggregation (Liver tissue [1]; [6]): 0
Tissue Disaggregation (Liver tissue [1]; [7]): 1

Compound: CCCCCCCCCCCCCC[N+](C)(C)Cc1ccccc1.[Cl-] [Benzyldimethyltetradecyl ammonium chloride]
Tissue Disaggregation (Liver tissue [1]; [4]): 0
Tissue Disaggregation (Liver tissue [1]; [5]): 0
Tissue Disaggregation (Liver tissue [1]; [6]): 0
Tissue Disaggregation (Liver tissue [1]; [7]): 1

Solubility of surfactant ([2]; 4 M GuSCN, Urea, pH 6.0): S
Solubility of surfactant ([2]; 4 M GuSCN, Urea, pH 10.0): S
Solubility of surfactant ([2]; 4 M NaI, Urea, pH 6.0): S(V)
Solubility of surfactant ([2]; 6 M GuHCl, pH 6.0): S
Solubility of surfactant ([2]; 6 M GuHCl, pH 10.0): S
Solubility of surfactant ([2]; 6 M GuSCN, pH 6.0): S
Solubility of surfactant ([2]; 6 M GuSCN, pH 10.0): S
Solubility of surfactant ([2]; 6 M NaI, pH 6.0): S
Compound: CCCCCCCCCCCCOCCOCCOCCO [Brij 30, triethyleneglycol monolauryl ether]

Compound: C[C@H](CCC(=O)O)[C@H]1CC[C@H]2[C@@H]3[C@H](O)C[C@@H]4C[C@H](O)CC[C@]4(C)[C@H]3CC[C@]12C [Chenodeoxycholic Acid]
maceration of liver slice (slices of liver; [8]): 0%
maceration of liver slice (slices of liver; [9]): 0%
maceration of liver slice (slices of liver; [10]): 0%
maceration of liver slice (slices of liver; [11]): 0%
maceration of liver slice (slices of liver; [12]): 0%

Compound: C[C@H](CCC(=O)O)[C@H]1CC[C@H]2[C@@H]3[C@H](O)C[C@@H]4C[C@H](O)CC[C@]4(C)[C@H]3C[C@H](O)[C@]12C [Cholic Acid]
maceration of liver slice (slices of liver; [12]): 0%

Compound: C[C@H](CCC(=O)NCC(=O)O)[C@H]1CC[C@H]2[C@@H]3[C@H](O)C[C@@H]4C[C@H](O)CC[C@]4(C)[C@H]3C[C@H](O)[C@]12C [Glycocholic Acid]
maceration of liver slice (slices of liver; [8]): 0%
maceration of liver slice (slices of liver; [9]): 0%
maceration of liver slice (slices of liver; [10]): 0%
maceration of liver slice (slices of liver; [11]): 0%

Compound: Cl.N=C(N)N [Guanidinium chloride]
maceration of liver slice (slices of liver; 1 mg/ml Proteinase K, 2-5 hr, 65° C., additive 2 M): 0%
maceration of liver slice (slices of liver; No Proteinase K, 2-5 hr, 65° C., additive 2 M): 0%

Compound: N#CS.N=C(N)N [Guanidinium thiocyanate]
maceration of liver slice (slices of liver; 1 mg/ml Proteinase K, 2-5 hr, 65° C., additive 1 M): 25%
maceration of liver slice (slices of liver; No Proteinase K, 2-5 hr, 65° C., additive 1 M): 0%

Compound: CCCCCCCCCCCCCCCC[N+](C)(C)C.[Cl-] [HDTACl, hexadecyltrimethylammonium chloride]
high molecular weight nucleic acid by gel electrophoresis (Liver tissue [3]): High molecular weight nucleic acid was also observed

Tissue Disaggregation (Liver tissue [1]; [4]): 0
Tissue Disaggregation (Liver tissue [1]; [5]): 1
Tissue Disaggregation (Liver tissue [1]; [6]): 0
Tissue Disaggregation (Liver tissue [1]; [7]): 4
Compound: CCCCCCCC/C=C\CCCCCCCC[N+](C)(C)Cc1ccccc1.[Cl-] [Mackernium KP, olealkonium chloride]

Tissue Disaggregation (Liver tissue [1]; [4]): 0
Tissue Disaggregation (Liver tissue [1]; [5]): 3
Tissue Disaggregation (Liver tissue [1]; [6]): 0
Tissue Disaggregation (Liver tissue [1]; [7]): 3
Compound: CCCCCCCCCCCCCCCCCC[N+](C)(C)Cc1ccccc1.[Cl-] [Mackernium SDC-85, Stearalkonium chloride]

Compound: CCCCC(CC)COS(=O)(=O)[O-].[Na+] (stereo not shown) [NiaProof Type 8]
maceration of liver slice (slices of liver; [8]): 0%
maceration of liver slice (slices of liver; [9]): 0%
maceration of liver slice (slices of liver; [10]): 0%
maceration of liver slice (slices of liver; [11]): 0%
maceration of liver slice (slices of liver; [13]): 0%

Compound: CCCCCCCC(=O)O [Octanonic Acid]
maceration of liver slice (slices of liver; [14]): 0%

Compound: CCCCCCCCS(=O)(=O)O [Octyl sulfonate]
maceration of liver slice (slices of liver; [14]): 0%

Compound: CCCCCCCCCCCCCC[N+](C)(C)C.[Br-] [TTAB, tetradecyltrimethylammonium bromide]
Tissue Disaggregation (Liver tissue [1]; [4]): 0
Tissue Disaggregation (Liver tissue [1]; [5]): 0
Tissue Disaggregation (Liver tissue [1]; [6]): 0
Tissue Disaggregation (Liver tissue [1]; [7]): 1

Compound: C[C@H](CCC(=O)NCCS(=O)(=O)O)[C@H]1CC[C@H]2[C@@H]3[C@H](O)C[C@@H]4C[C@H](O)CC[C@]4(C)[C@H]3CC[C@]12C [Taurochenodeoxycholic Acid]
maceration of liver slice (slices of liver; [8]): 0%
maceration of liver slice (slices of liver; [9]): 0%
maceration of liver slice (slices of liver; [10]): 0%
maceration of liver slice (slices of liver; [11]): 0%

Compound: C[C@H](CCC(=O)NCCS(=O)(=O)O)[C@H]1CC[C@H]2[C@@H]3[C@H](O)C[C@@H]4C[C@H](O)CC[C@]4(C)[C@H]3C[C@H](O)[C@]12C [Taurocholic Acid]
maceration of liver slice (slices of liver): 0%

Compound: C[C@H](CCC(=O)NCCS(=O)(=O)O)[C@H]1CC[C@H]2[C@@H]3CC[C@@H]4C[C@H](O)CC[C@]4(C)[C@H]3C[C@H](O)[C@]12C [Taurodeoxycholic Acid]
maceration of liver slice (slices of liver; [8]): 0%
maceration of liver slice (slices of liver; [9]): 0%
maceration of liver slice (slices of liver; [10]): 0%
maceration of liver slice (slices of liver; [11]): 0%

Compound: C[N+](C)(C)C.[Cl-] [Tetramethylammonium chloride]
maceration of liver slice (slices of liver; 1 mg/ml Proteinase K, 16-24 hr, 65° C., additive 0.1 M): 0%
maceration of liver slice (slices of liver; 1 mg/ml Proteinase K, 16-24 hr, 65° C., additive 1 M): 0%
maceration of liver slice (slices of liver; 1 mg/ml Proteinase K, 1 hr, 65° C., additive 0.1 M): 0%
maceration of liver slice (slices of liver; 1 mg/ml Proteinase K, 1 hr, 65° C., additive 1 M): 0%
maceration of liver slice (slices of liver; No Proteinase K, 16-24 hr, 65° C., additive 0.1 M): 0%
maceration of liver slice (slices of liver; No Proteinase K, 16-24 hr, 65° C., additive 1 M): 0%

Solubility of surfactant ([2]; pH 6): S
Solubility of surfactant ([2]; pH 10): S
Compound: (octylphenoxy)polyethoxyethanol [IGEPA]

Tissue Disaggregation (Liver tissue [1]; [4]): 0
Tissue Disaggregation (Liver tissue [1]; [5]): 1
Tissue Disaggregation (Liver tissue [1]; [6]): 0
Tissue Disaggregation (Liver tissue [1]; [7]): 2
Compound: Benzalkonium Chloride

Tissue Disaggregation (Liver tissue [1]; [4]): 0
Tissue Disaggregation (Liver tissue [1]; [5]): 1
Tissue Disaggregation (Liver tissue [1]; [6]): 0
Tissue Disaggregation (Liver tissue [1]; [7]): 1
Compound: Quaternium-84 [Mackernium NLE]

Solubility of surfactant ([2]; pH 6): S
Solubility of surfactant ([2]; pH 10): S
Compound: polyoxyethylenesorbitan monolaurate [Tween 21]

Solubility of surfactant ([2]; pH 6): S
Solubility of surfactant ([2]; pH 10): S
Compound: polyoxyethylenesorbitan monooleate [Tween 80]
maceration of liver slice (slices of liver; [8]): 0%
maceration of liver slice (slices of liver; [9]): 0%
maceration of liver slice (slices of liver; [10]): 0%
maceration of liver slice (slices of liver; [11]): 0%

Solubility of surfactant ([2]; pH 6): S
Solubility of surfactant ([2]; pH 10): S
Compound: polyoxyethylenesorbitan monopalmitate [Tween 40]

Solubility of surfactant ([2]; pH 6): S
Solubility of surfactant ([2]; pH 10): S
Compound: polyoxyethylenesorbitan monostearate [Tween 60]

Solubility of surfactant ([2]; pH 6): S
Solubility of surfactant ([2]; pH 10): S
Compound: t-octylphenoxypolyethoxyethanol [Triton X-100]
maceration of liver slice (slices of liver; [8]): 0%
maceration of liver slice (slices of liver; [9]): 100%
maceration of liver slice (slices of liver; [10]): 0%
maceration of liver slice (slices of liver; [11]): 30%
maceration of liver slice (slices of liver; [13]): 0%
maceration of liver slice (slices of liver; [12]): 0%
